Converted amounts (≈) assume the structure as drawn. Like-named read-outs stand apart in the source and are kept apart here.
Experiments:
Type in all cases: cell-based
[1] = system: Enterococcus faecalis ATCC 29212; assay: Broth microdilution MIC, E. faecalis ATCC 29212; conditions: ATCC29212, broth microdilution, 37° C., 20 hours, read-out: MIC E. faecalis ATCC 29212
Summary of the method: (§1)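 Two-fold dilutions from 64 to 0.0625 μg/ml final, 1% DMSO, were inoculated at ~5.0×10^5 cfu/ml in the strain's test medium and kept 20 h at 37 °C in ambient atmosphere. Colonies were grown on MHA, with S. pneumoniae on blood agar under 5% CO2.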

[2] = system: Staphylococcus aureus ATCC 29213 (MSSA); assay: Broth microdilution MIC, S. aureus ATCC 29213 (MSSA); conditions: broth microdilution, 37° C., 20 hours, read-out: MIC S. aureus ATCC 29213 (MSSA)
Summary of the method: as §1

[3] = system: Bacillus subtilis ATCC 6633; assay: Broth microdilution MIC, B. subtilis ATCC 6633; conditions: ATCC6633, broth microdilution, 37° C., 20 hours, read-out: MIC B. subtilis ATCC 6633
Summary of the method: as §1

[4] = system: Escherichia coli ATCC 25922; assay: Broth microdilution MIC, E. coli ATCC 25922 (MHIIB w & w/o 4 mM EDTA); conditions: broth microdilution, 37° C., 20 hours; for MIC: Escherichia coli, ATCC25922, without EDTA, read-out: MIC E. coli ATCC 25922; for MIC E. coli ATCC 25922 + 4 mM EDTA: with 4 mM EDTA
Summary of the method: as §1

[5] = system: Streptococcus pneumoniae ATCC 49619; assay: Broth microdilution MIC, S. pneumoniae ATCC 49619; conditions: ATCC49619, broth microdilution, 37° C., 20 hours, read-out: MIC S. pneumoniae ATCC 49619
Summary of the method: as §1

[6] = system: Enterococcus faecium ATCC 700221 (VRE); assay: Broth microdilution MIC, E. faecium ATCC 700221 (VRE); conditions: Enterococcus faecium, broth microdilution, 37° C., 20 hours
Summary of the method: as §1

[7] = system: Staphylococcus aureus NRS384 (MRSA); assay: Broth microdilution MIC, S. aureus NRS384 (MRSA); conditions: Staphylococcus aureus, broth microdilution, 37° C., 20 hours
Summary of the method: as §1

[8] = read-out: MIC E. faecium ATCC 700221 (VRE)

MIC [1] [µg/mL]	MIC [2] [µg/mL]	MIC [3] [µg/mL]	MIC [4] [µg/mL]	MIC E. coli ATCC 25922 + 4 mM EDTA [4] [µg/mL]	MIC [5] [µg/mL]	MIC [6, 8] [µg/mL]	MIC ([6]; MHIIB, read-out: MIC against E. faecium ATCC 700221 (VRE)) [µg/mL]	MIC ([7]; read-out: MIC NRS 384 (MRSA)) [µg/mL]	MIC ([7]; MHIIB, read-out: MIC against S. aureus NRS 384 (MRSA)) [µg/mL]	Compound
> 64	1 (≈ 2.64 µM)	0.5 (≈ 1.32 µM)	> 64	>64	8 (≈ 21.1 µM)	1 (≈ 2.64 µM)	≤ 1	1 (≈ 2.64 µM)	≤ 1	O=c1[nH]c(NCc2ccc(Cl)c(Cl)c2)nc2cnn(CC3CCC3)c12 [Compound 134, 1-(Cyclobutylmethyl)-5-((3,4-dichlorobenzyl)amino)-1H-pyrazolo[4,3-d]pyrimidin-7(6H)-one]
> 64	32 (≈ 84.6 µM)	4 (≈ 10.6 µM)	> 64	8	16 (≈ 42.3 µM)	8 (≈ 21.1 µM)	–	8 (≈ 21.1 µM)	–	O=c1[nH]c(NCc2ccc(Cl)c(Cl)c2)nc2cn(CC3CCC3)nc12 [Compound 135, 2-(Cyclobutylmethyl)-5-((3,4-dichlorobenzyl)amino)-2H-pyrazolo[4,3-d]pyrimidin-7(6H)-one]
4 (≈ 9.7 µM)	4 (≈ 9.7 µM)	1 (≈ 2.43 µM)	> 64	>64	2 (≈ 4.85 µM)	2 (≈ 4.85 µM)	–	4 (≈ 9.7 µM)	–	COCCOCCn1ncc2nc(NCc3ccc(Cl)c(Cl)c3)[nH]c(=O)c21 [Compound 136, 5-((3,4-Dichlorobenzyl)amino)-1-(2-(2-methoxyethoxy)ethyl)-1H-pyrazolo[4,3-d]pyrimidin-7(6H)-one]
32 (≈ 77.6 µM)	32 (≈ 77.6 µM)	16 (≈ 38.8 µM)	> 64	>64	16 (≈ 38.8 µM)	16 (≈ 38.8 µM)	–	32 (≈ 77.6 µM)	–	COCCOCCn1cc2nc(NCc3ccc(Cl)c(Cl)c3)[nH]c(=O)c2n1 [Compound 137, 5-((3,4-Dichlorobenzyl)amino)-2-(2-(2-methoxyethoxy)ethyl)-2H-pyrazolo[4,3-d]pyrimidin-7(6H)-one]
4 (≈ 10 µM)	2 (≈ 5.02 µM)	1 (≈ 2.51 µM)	> 64	>64	2 (≈ 5.02 µM)	2 (≈ 5.02 µM)	–	2 (≈ 5.02 µM)	–	COCCOCn1ncc2nc(NCc3ccc(Cl)c(Cl)c3)[nH]c(=O)c21 [Compound 138, 5-((3,4-dichlorobenzyl)amino)-1-((2-methoxyethoxy)methyl)-1H-pyrazolo[4,3-d]pyrimidin-7(6H)-one]
> 64	> 64	> 64	> 64	>64	> 64	> 64	–	> 64	–	O=c1[nH]c(NCc2ccc(Cl)c(Cl)c2)nc2cnn(-c3ncccn3)c12 [Compound 139, 5-((3,4-Dichlorobenzyl)amino)-1-(pyrimidin-2-yl)-1H-pyrazolo[4,3-d]pyrimidin-7(6H)-one]
> 64	> 64	4 (≈ 10.3 µM)	> 64	>64	4 (≈ 10.3 µM)	32 (≈ 82.4 µM)	–	> 64	–	O=c1[nH]c(NCc2ccc(Cl)c(Cl)c2)nc2cn(-c3ncccn3)nc12 [Compound 140, 5-((3,4-Dichlorobenzyl)amino)-2-(pyrimidin-2-yl)-2H-pyrazolo[4,3-d]pyrimidin-7(6H)-one]
> 64	> 64	> 64	> 64	>64	> 64	> 64	–	> 64	–	O=C(O)COCCn1cc2nc(NCc3ccc(Cl)c(Cl)c3)[nH]c(=O)c2n1 [Compound 141, 2-(2-(5-((3,4-Dichlorobenzyl)amino)-7-oxo-6,7-dihydro-2H-pyrazolo[4,3-d]pyrimidin-2-yl)ethoxy)acetic acid]
4 (≈ 10.9 µM)	4 (≈ 10.9 µM)	1 (≈ 2.73 µM)	> 64	>64	4 (≈ 10.9 µM)	2 (≈ 5.46 µM)	–	2 (≈ 5.46 µM)	–	O=c1[nH]c(NCc2ccc(Cl)c(Cl)c2)nc2cnn(C3COC3)c12 [Compound 142, 5-((3,4-Dichlorobenzyl)amino)-1-(oxetan-3-yl)-1H-pyrazolo[4,3-d]pyrimidin-7(6H)-one]
32 (≈ 87.4 µM)	64 (≈ 175 µM)	16 (≈ 43.7 µM)	> 64	>64	16 (≈ 43.7 µM)	32 (≈ 87.4 µM)	–	32 (≈ 87.4 µM)	–	O=c1[nH]c(NCc2ccc(Cl)c(Cl)c2)nc2cn(C3COC3)nc12 [Compound 143, 5-((3,4-Dichlorobenzyl)amino)-2-(oxetan-3-yl)-2H-pyrazolo[4,3-d]pyrimidin-7(6H)-one]
16 (≈ 40.9 µM)	4 (≈ 10.2 µM)	2 (≈ 5.11 µM)	> 64	>64	8 (≈ 20.4 µM)	2 (≈ 5.11 µM)	–	4 (≈ 10.2 µM)	–	O=c1[nH]c(NCc2ccc(Cl)c(Cl)c2)nc2cnn(Cc3ncco3)c12 [Compound 144, 5-((3,4-Dichlorobenzyl)amino)-1-(oxazol-2-ylmethyl)-1H-pyrazolo[4,3-d]pyrimidin-7(6H)-one]
64 (≈ 162 µM)	64 (≈ 162 µM)	32 (≈ 80.8 µM)	> 64	>64	16 (≈ 40.4 µM)	16 (≈ 40.4 µM)	–	64 (≈ 162 µM)	–	O=C(O)CCCn1ncc2nc(NCc3ccc(Cl)c(Cl)c3)[nH]c(=O)c21 [Compound 145, 4-(5-((3,4-Dichlorobenzyl)amino)-7-oxo-6,7-dihydro-1H-pyrazolo[4,3-d]pyrimidin-1-yl)butanoic acid]
64 (≈ 145 µM)	> 64	32 (≈ 72.4 µM)	> 64	>64	32 (≈ 72.4 µM)	32 (≈ 72.4 µM)	–	> 64	–	CP(C)(=O)CCCCn1ncc2nc(NCc3ccc(Cl)c(Cl)c3)[nH]c(=O)c21 [Compound 146, 5-((3,4-Dichlorobenzyl)amino)-1-(4-(dimethylphosphoryl)butyl)-1H-pyrazolo[4,3-d]pyrimidin-7(6H)-one]
8	8	2	> 64	64	4	2	–	4	–	CN1CCOC(Cn2ncc3nc(NCc4ccc(Cl)c(Cl)c4)[nH]c(=O)c32)C1.Cl (centres unmarked) [Compound 147, 5-((3,4-dichlorobenzyl)amino)-1-((4-methylmorpholin-2-yl)methyl)-1H-pyrazolo[4,3-d]pyrimidin-7(6H)-one hydrochloride]
16 (≈ 31.4 µM)	8 (≈ 15.7 µM)	2 (≈ 3.93 µM)	> 64	>64	16 (≈ 31.4 µM)	4 (≈ 7.85 µM)	–	4 (≈ 7.85 µM)	–	CC(C)(C)OC(=O)N1CCOC(Cn2ncc3nc(NCc4ccc(Cl)c(Cl)c4)[nH]c(=O)c32)C1 (centres unmarked) [Compound 148, tert-butyl 2-((5-((3,4-dichlorobenzyl)amino)-7-oxo-6,7-dihydro-1H-pyrazolo[4,3-d]pyrimidin-1-yl)methyl)morpholine-4-carboxylate]
> 64	> 64	> 64	> 64	>64	> 64	> 64	–	> 64	–	Cl.O=C(O)C1CC(n2ncc3nc(NCc4ccc(Cl)c(Cl)c4)[nH]c(=O)c32)CN1C(=O)c1ccncc1 (centres unmarked) [Compound 150, 4-(5-((3,4-dichlorobenzyl)amino)-7-oxo-6,7-dihydro-1H-pyrazolo[4,3-d]pyrimidin-1-yl)-1-isonicotinoylpyrrolidine-2-carboxylic acid hydrochloride]
> 64	> 64	> 64	> 64	>64	64	> 64	–	> 64	–	Cl.O=C(O)C1CC(n2ncc3nc(NCc4ccc(Cl)c(Cl)c4)[nH]c(=O)c32)CN1 (centres unmarked) [Compound 151, 4-(5-((3,4-dichlorobenzyl)amino)-7-oxo-6,7-dihydro-1H-pyrazolo[4,3-d]pyrimidin-1-yl)pyrrolidine-2-carboxylic acid hydrochloride]
16 (≈ 40.7 µM)	16 (≈ 40.7 µM)	4 (≈ 10.2 µM)	> 64	32	2 (≈ 5.09 µM)	8 (≈ 20.3 µM)	–	16 (≈ 40.7 µM)	–	O=c1[nH]c(NCc2ccc(Cl)c(Cl)c2)nc2cnn(C3CCNCC3)c12 [Compound 152, 5-((3,4-dichlorobenzyl)amino)-1-(piperidin-4-yl)-1H-pyrazolo[4,3-d]pyrimidin-7(6H)-one]

From patent US10723741B1, “DNA polymerase IIIC inhibitors and use thereof” (Acurx Pharmaceuticals, LLC, priority 2018, dated 2020)
